# Measurements reported in publication PMC8155809 (The Journal of General Physiology, 2021).
# Read-outs that look alike come from different tables or passages of the source.
# Target: T1, human TREK-2 (Homo sapiens, UniProt P57789)
# T1 construct: expressed in transfected cells; host or cells: Xenopus laevis oocytes injected with in vitro transcribed mRNA (pFAW vector)
# T1 sequence (P57789 1-543 isoform P57789-4): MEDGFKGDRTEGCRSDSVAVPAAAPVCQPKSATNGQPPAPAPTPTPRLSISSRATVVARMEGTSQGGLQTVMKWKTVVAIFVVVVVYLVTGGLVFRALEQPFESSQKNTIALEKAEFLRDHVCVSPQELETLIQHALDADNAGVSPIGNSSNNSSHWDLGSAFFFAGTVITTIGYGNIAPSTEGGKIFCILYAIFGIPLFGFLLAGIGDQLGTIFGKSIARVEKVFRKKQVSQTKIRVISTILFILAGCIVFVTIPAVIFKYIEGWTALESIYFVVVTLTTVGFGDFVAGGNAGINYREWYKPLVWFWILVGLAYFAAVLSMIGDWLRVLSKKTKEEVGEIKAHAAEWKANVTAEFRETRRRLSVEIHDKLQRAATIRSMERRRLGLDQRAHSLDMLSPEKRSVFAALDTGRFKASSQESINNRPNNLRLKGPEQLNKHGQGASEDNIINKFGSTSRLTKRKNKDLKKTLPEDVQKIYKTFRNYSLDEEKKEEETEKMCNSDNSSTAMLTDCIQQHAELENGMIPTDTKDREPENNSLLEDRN
# Assay: Macroscopic TREK-2 currents in giant excised patches from Xenopus oocytes
# Type: cell-based
# Description: Full-length human TREK-2 isoform 3 (NCBI accession no. NP_612191) was used throughout this study and was subcloned into the pFAW vector for expression in oocytes. The truncated construct used to generate protein (TREK-2ΔN/ΔC) is identical to that used previously to obtain crystal structures ([Dong et al., 2015]); it contains a deletion of 71 residues at the N terminus and 213 residues at the C terminus. […] Desamino chloro-fluoxetine (Toronto Research Chemicals) was dissolved in chloroform and diluted to working concentrations on the day of experimenting (maximum final concentration was 0.01%).
# Oocytes were prepared for injection of mRNA by collagenase digestion followed by manual defolliculation and stored in ND96 solution that contained (in mM) 96 NaCl, 2 KCl, 1.8 CaCl2, 1 MgCl2, and 10 HEPES (pH 7.4) and was supplemented with 2.5 mM sodium pyruvate 50 µg/ml gentamycin, 50 µg/ml tetracycline, 50 µg/ml ciprofloxacin, and 100 µg/ml amikacin. Cells were injected with 1–4 ng mRNA up to 4 d after isolation. In vitro transcription of mRNA was done using the Amplicap SP6 Kit (Cambio). Experiments were performed 12–24 h after injection at room temperature (22°C unless otherwise indicated). For measurement and comparison of basal whole-cell currents, oocytes were injected with 4 ng RNA and recorded exactly 24 h after injection.
# For currents recorded in Xenopus laevis oocytes, giant-patch electrodes were pulled from thick-walled borosilicate glass and polished to give pipette resistances of ∼0.3–0.5 MΩ when filled with patch solution. Pipette solution contained (in mM) 116 NMDG, 4 KCl, 1 MgCl2, 3.6 CaCl2, and 10 HEPES (pH 7.4), while the bath solution contained (in mM) 120 KCl, 1 NaCl, 2 EGTA, and 10 HEPES (pH 7.3). Patches were perfused via a gravity-flow perfusion system and a HEKA EPC 10 USB single computer–controlled amplifier was used and currents recorded using a Patchmaster v2 × 90.5 (HEKA Electronics), filtered at 1 kHz, and sampled at 10 kHz. For currents recorded in HEK293 cells, patch electrodes were pulled from thick-walled borosilicate glass and polished to give pipette resistances of ∼3–5 MΩ when filled with patch solution. The currents were recorded from excised patches with both intracellular and extracellular solution containing 200 mM KCl and 10 mM HEPES (pH 6.0 with KOH). Patches were perfused via a gravity-flow perfusion system. Data were acquired with pClamp and recorded using an Axopatch 200B (Molecular Devices), filtered at 5 kHz, and sampled at 200 kHz. Single-channel currents were analyzed in an identical manner to those obtained from bilayers (see above).
# The macroscopic concentration–inhibition relationships in Figs. 1 and 2 were fitted with a modified Hill equation:
# I/I0=a+1−a/1+([X]/IC50)^h, (1) where I and IO are the currents in the presence and absence of inhibitor, respectively, [X] is the concentration of inhibitor, IC50 is the inhibitor concentration at which the inhibition is half maximal, h is the Hill coefficient, and a is the fraction of unblockable current; a = 0, except where indicated in the legend to Fig. 1.
# The macroscopic concentration–activation relationships in Fig. 1 E were fitted with a modified Hill equation: I/I0=a+(1−a)([X]/IC50)^h/1+([X]/IC50)^h, (2) where I and IO are the currents in the presence and absence of agonist, respectively, [X] is the concentration of agonist, IC50 is the agonist concentration at which the activation is half maximal, h is the Hill coefficient, and a is the fraction of initial current.
# [1] = +40 mV, in the presence of 80 µM TPA
structure (smiles),measurement,setting,value
"NCCC(Oc1ccc(C(F)(F)F)cc1)c1ccccc1 (stereo not drawn) [NFx, norfluoxetine]","h (Hill coefficient), NFx inhibition","0 mV, Fig. S4",0.72
same,"h (Hill coefficient), NFx inhibition","+40 mV, Fig. S4",0.74
same,"h (Hill coefficient), NFx inhibition","+40 mV, NFx on its own, Fig. 1E",1.0
same,a (fraction of unblockable current),[1],0.05
same,"h (Hill coefficient), NFx inhibition",[1],1.2
same,"h (Hill coefficient), NFx inhibition","+40 mV, in the presence of 100 mM TEA",0.8
same,"h (Hill coefficient), NFx inhibition","+80 mV, Fig. S4",0.79
same,IC50,"IC50, NFx inhibition of TREK-2 currents, +40 mV, NFx on its own, Fig. 1E",2700 nM
same,IC50,"IC50, NFx inhibition of macroscopic WT TREK-2 currents, 0 mV, Fig. S4",4200 nM
same,IC50,"IC50, NFx inhibition of macroscopic WT TREK-2 currents, +40 mV, Fig. S4",2000 nM
same,IC50,"IC50, NFx inhibition of macroscopic WT TREK-2 currents, +80 mV, Fig. S4",1400 nM
same,"h (Hill coefficient), NFx inhibition","NFx on its own, Fig. 2C",1.7
same,IC50,"giant inside-out patches, physiological pH 7.4, NFx alone, read-out: IC50 for channel inhibition",~3000 nM
same,"h (Hill coefficient), NFx inhibition",in the presence of 50 µM ML335,0.8
same,"h (Hill coefficient), NFx inhibition",in the presence of 1 mM 2-APB,0.6
